The values that follow come from US4948783A, “Anticariogenic or antiperidontitic method” (Kabushiki Kaisya Advance Kaihatsu kenkyujo, priority 1985, dated 1990).

SMILES strings stand for the structures. In brackets after ≈: the same amount, converted by molar mass. Like-named read-outs stand apart in the source and are kept apart here. A value given as a limit tells only on which side of the number the result lay.

The test system of one assay is S. mutans. Nature of the assay: Antibacterial activity (MIC) against S. mutans. It counts as cell-based, Streptococcus mutans (isolated from a human oral cavity). As to conditions: Streptococcus mutans. Here is the method:
(§1) A sample of vitamin L2 (methylthioadenosine) (Sigma Chemical Company) having the chemical formula shown below was dissolved in water, [drawing 3] the pH was adjusted to 7, and sterilization was carried out by autoclaving at 121° C. for 15 min or by filtration with membrane filters, to form a sterile solution. This sample solution mentioned above was added into a sterile basal medium (refer to Table 1) together with sterile distilled water to adjust the concentration of the sample. To this medium, S. mutans causing dental caries, Actinomyces naeslundii and A. viscosus causing dental caries and periondontitis, and B. gingivalis and Fusobacterium nucleatum causing periodontitis, each bacterium being isolated from a human oral cavity, were repectively inoculated. After incubation at 37° C. for 24 hrs, the MIC (minimal growth-inhibitoryconcentration: μg/ml) against each bacterium was determined. As a control, a 0.85% NaCl solution was used instead of the sample solution of vitamin L2. Furthermore, the effect of vitamin L2 on intestinal bacteria such as S. faecium, S. faecalis, Bifidobacterium bifidum, Lactobacillus acidophilus, and L. fermentum, isolated from the feces of healthy humans, was also determined by the same procedures.

Another assay has as its system B. gingivalis. Nature of the assay: Antibacterial activity (MIC) against B. gingivalis. Format: cell-based, Bacteroides gingivalis (isolated from a human oral cavity). As to conditions: for MIC: Porphyromonas gingivalis. Here is the method:
as §1

The test system of another assay is A. naeslundii. Briefly: Antibacterial activity (MIC) against A. naeslundii. It counts as cell-based, Actinomyces naeslundii (isolated from a human oral cavity). As to conditions: Actinomyces naeslundii, Brain heart infusion broth, 37° C., 24 hrs, read-out: MIC (minimal growth-inhibitory concentration). Here is the method: as §1
For a further assay, the system named is A. viscosus. Nature of the assay: Antibacterial activity (MIC) against A. viscosus. Format: cell-based, A. viscosus (isolated from a human oral cavity). As to conditions: Actinomyces viscosus, Brain heart infusion broth, 37° C., 24 hrs, read-out: MIC (minimal growth-inhibitory concentration). Here is the method: as §1
The test system of another assay is F. nucleatum. Nature of the assay: Antibacterial activity (MIC) against F. nucleatum. Format: cell-based, Fusobacterium nucleatum (isolated from a human oral cavity). As to conditions: Fusobacterium nucleatum, GAM broth, 37° C., 24 hrs, read-out: MIC (minimal growth-inhibitory concentration). Here is the method: as §1
The next assay deals with S. faecium. Nature of the assay: Effect on intestinal bacteria (MIC), S. faecium. Conditions: Enterococcus faecium, Todd-Hewitt broth, 37° C., 24 hrs, read-out: MIC (minimal growth-inhibitory concentration). It counts as cell-based, S. faecium (isolated from the feces of healthy humans). Here is the method:
as §1

The next assay relates to S. faecalis. Nature of the assay: Effect on intestinal bacteria (MIC), S. faecalis. It counts as cell-based, S. faecalis (isolated from the feces of healthy humans). Conditions: Enterococcus faecalis, Todd-Hewitt broth, 37° C., 24 hrs, read-out: MIC (minimal growth-inhibitory concentration). Here is the method:
as §1

The subject of a further assay is Bif. bifidum. Briefly: Effect on intestinal bacteria (MIC), Bif. bifidum. It counts as cell-based. Conditions: Bifidobacterium bifidum, GAM broth, 37° C., 24 hrs, read-out: MIC (minimal growth-inhibitory concentration). Here is the method:
as §1

The next assay deals with L. acidophilus. Nature of the assay: Effect on intestinal bacteria (MIC), L. acidophilus. Format: cell-based. Conditions: Lactobacillus acidophilus, Rogosa broth, 37° C., 24 hrs, read-out: MIC (minimal growth-inhibitory concentration). Here is the method: as §1
Another assay deals with L. fermentum. Briefly: Effect on intestinal bacteria (MIC), L. fermentum. Format: cell-based, L. fermentum (isolated from the feces of healthy humans). Conditions: Limosilactobacillus fermentum, Rogosa broth, 37° C., 24 hrs, read-out: MIC (minimal growth-inhibitory concentration). Here is the method:
as §1

[1] abbreviates: 24 h, S. mutans, same procedures as in Example 1, read-out: MIC, S. mutans (Table 3).
Where [2] appears, read: 24 h, B. gingivalis, same procedures as in Example 1, read-out: MIC, B. gingivalis (Table 3).
The mark [3] stands for this setting: 24 h, read-out: MIC, S. mutans (Table 3).

Turning to `Nc1ncnc2c1ncn2[C@@H]1O[C@H](CCl)[C@@H](O)[C@H]1O` [Material (1), 5'-deoxy-5'-chloroadenosine], the MIC with S. mutans (setting [1]) came out at 250 µg/mL (≈ 875 µM); with B. gingivalis (setting [2]), 125 µg/mL (≈ 438 µM).

For the compound `CNc1ncnc2c1ncn2[C@@H]1O[C@H](CO)[C@@H](O)[C@H]1O` [Material (2), N-6 methyladenosine], the MIC stood at 1000 µg/mL (≈ 3560 µM) with S. mutans (setting [1]) and 250 µg/mL (≈ 889 µM) in the assay on B. gingivalis (setting [2]).

With `OC[C@H]1O[C@@H](n2cnc3c(NCc4ccccc4)ncnc32)[C@H](O)[C@@H]1O` [Material (3), N-6 benzyladenosine], the MIC in the assay with S. mutans (setting [1]) was 1000 µg/mL (≈ 2800 µM); in the assay with B. gingivalis (setting [2]) it was 250 µg/mL (≈ 700 µM).

On to `Nc1nc(Cl)nc2c1ncn2[C@@H]1O[C@H](CO)[C@@H](O)[C@H]1O` [Material (4), 2-chloroadenosine], for which the MIC with S. mutans (setting [1]) amounted to 1000 µg/mL (≈ 3310 µM); in the assay on B. gingivalis (setting [2]) it was 250 µg/mL (≈ 829 µM).

For the compound `CC(C)CSC[C@H]1O[C@@H](n2cnc3c(N)ncnc32)[C@H](O)[C@@H]1O` [Material (5), (5'-deoxy) isobutylthioadenosine], the MIC worked out at 1500 µg/mL (≈ 4420 µM) in the assay with S. mutans (setting [1]) and 250 µg/mL (≈ 737 µM) in the assay on B. gingivalis (setting [2]).

`Nc1ncnc2c1ncn2[C@@H]1O[C@H](CO)[C@@H](O)[C@H]1O` [Material (6), adenosine]: the MIC in the assay on S. mutans (setting [3]) was 1000 µg/mL (≈ 3740 µM). The “MIC, B. gingivalis (Table 3)” value with B. gingivalis (B. gingivalis, same procedures as in Example 1) is given as “No inhibition”.

As for `Nc1ncnc2c1ncn2[C@@H]1O[C@H](CO)[C@@H](O)[C@@H]1O` [Material (7), spongoadenosine], the MIC was 1500 µg/mL (≈ 5610 µM) in the assay with S. mutans (setting [3]) and 16 µg/mL (≈ 59.9 µM) with B. gingivalis (24 h, read-out: MIC, B. gingivalis (Table 3)).

For the compound `C[C@H]1O[C@@H](n2cnc3c(N)ncnc32)[C@H](O)[C@@H]1O` [Material (8), 5'-deoxyadenosine], the MIC worked out at 1000 µg/mL (≈ 3980 µM) in the assay on S. mutans (setting [1]) and 125 µg/mL (≈ 498 µM) in the assay with B. gingivalis (setting [2]).

As for `CSC[C@H]1O[C@@H](n2cnc3c(N)ncnc32)[C@H](O)[C@@H]1O` [vitamin L2, methylthioadenosine], the MIC with S. mutans (S. mutans, Todd-Hewitt broth, 37° C., 24 hrs, read-out: MIC (minimal growth-inhibitory concentration)) is 63 µg/mL (≈ 212 µM); in the assay on A. naeslundii, 32 µg/mL (≈ 108 µM); with A. viscosus it was 63 µg/mL (≈ 212 µM); with B. gingivalis (B. gingivalis, GAM broth, 37° C., 24 hrs, read-out: MIC (minimal growth-inhibitory concentration)), 125 µg/mL (≈ 420 µM); with F. nucleatum, 500 µg/mL (≈ 1680 µM); in the assay with S. faecium, above 1000 µg/mL. Also, the MIC is above 1000 µg/mL in the assay with S. faecalis, above 1000 µg/mL in the assay on Bif. bifidum, above 1000 µg/mL in the assay on L. acidophilus and 1000 µg/mL (≈ 3360 µM) in the assay with L. fermentum.
